Measurements as given in ChEMBL document CHEMBL1201862, “PubChem BioAssay data set” (2004).
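In this assay, cells in 96-well plates receive the compound at five concentrations for 48 hours. Endpoints are linearly interpolated between the surrounding concentrations. GI50 marks 50% less growth.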 Calls of active or inactive are those of the source. Cut-off read from the data, not from the text of the source: active = GI50 up to about 1.1 µM and inactive = higher.

Columns and labels:
Experiment in all cases: NCI tumour cell line growth inhibition, 48 h
UO-31 = system: UO-31
T47D = system: T47D
UACC-62 = system: UACC-62
LOX IMVI = system: LOX IMVI
RPMI-8226 = system: RPMI-8226
MDA-MB-231 = system: MDA-MB-231
OVCAR-8 = system: OVCAR-8
Hs-578T = system: Hs-578T
A549 = system: A549
M14 = system: M14
K562 = system: K562
OVCAR-3 = system: OVCAR-3
HCT-15 = system: HCT-15
SW-620 = system: SW-620
HCT-116 = system: HCT-116
A498 = system: A498
NCI-H23 = system: NCI-H23
OVCAR-4 = system: OVCAR-4
SNB-75 = system: SNB-75
MOLT-4 = system: MOLT-4
EKVX = system: EKVX
SNB-19 = system: SNB-19
SN12C = system: SN12C
U-251 = system: U-251
CAKI-1 = system: CAKI-1
SK-OV-3 = system: SK-OV-3
SF-539 = system: SF-539
SK-MEL-28 = system: SK-MEL-28
NCI-H460 = system: NCI-H460
KM12 = system: KM12
DU-145 = system: DU-145
MCF7 = system: MCF7
Malme-3M = system: Malme-3M
NCI/ADR-RES = system: NCI/ADR-RES
MDA-N = system: MDA-N
SF-268 = system: SF-268
NCI-H226 = system: NCI-H226
786-0 = system: 786-0
HT-29 = system: HT-29
SK-MEL-2 = system: SK-MEL-2
OVCAR-5 = system: OVCAR-5
CCRF-CEM = system: CCRF-CEM
COLO 205 = system: COLO 205
HOP-62 = system: HOP-62
UACC-257 = system: UACC-257
MDA-MB-435 = system: MDA-MB-435
SF-295 = system: SF-295
PC-3 = system: PC-3
ACHN = system: ACHN
HCC 2998 = system: HCC 2998
RXF 393 = system: RXF 393
BT-549 = system: BT-549
HOP-92 = system: HOP-92
TK-10 = system: TK-10
SK-MEL-5 = system: SK-MEL-5
HL-60 = system: HL-60
NCI-H522 = system: NCI-H522
SR = system: SR
IGROV-1 = system: IGROV-1

Measured: GI50

O=c1[nH]nc(-c2ccccc2)n1/N=C/c1cccs1
inactive: UO-31 58.3 µM | T47D 38.1 µM | UACC-62 46.7 µM | LOX IMVI 43.2 µM | RPMI-8226 27.1 µM | MDA-MB-231 > 100 µM | OVCAR-8 37.4 µM | Hs-578T 56 µM | A549 52.4 µM | M14 > 100 µM | K562 38.1 µM | OVCAR-3 > 100 µM | SW-620 82 µM | HCT-116 36.7 µM | A498 54.2 µM | NCI-H23 36.6 µM | OVCAR-4 21.7 µM | SNB-75 49.7 µM | MOLT-4 31.6 µM | EKVX 83.6 µM | SNB-19 > 100 µM | SN12C 46.8 µM | U-251 > 100 µM | CAKI-1 > 100 µM | SK-OV-3 > 100 µM | SF-539 95.5 µM | SK-MEL-28 86.9 µM | NCI-H460 36.3 µM | KM12 > 100 µM | DU-145 32.3 µM | MCF7 46.6 µM | Malme-3M 62.5 µM | NCI/ADR-RES 32.7 µM | MDA-N 74.8 µM | SF-268 > 100 µM | NCI-H226 59.4 µM | 786-0 91.4 µM | HT-29 65.5 µM | SK-MEL-2 99.5 µM | OVCAR-5 > 100 µM | CCRF-CEM 43.1 µM | COLO 205 19.5 µM | HOP-62 > 100 µM | UACC-257 56.8 µM | MDA-MB-435 28.2 µM | SF-295 72.3 µM | PC-3 66.1 µM | ACHN 70 µM | HCC 2998 > 100 µM | RXF 393 37.3 µM | BT-549 27.5 µM
44.3 µM: HCT-15

COc1cccc2c(NNc3ccc(Cl)cc3)c3ccc([N+](=O)[O-])cc3nc12
8.59 µM: HCT-15
inactive: HOP-92 10.9 µM | UO-31 5.33 µM | T47D 5.43 µM | UACC-62 8.38 µM | LOX IMVI 11.3 µM | RPMI-8226 14.3 µM | MDA-MB-231 12.7 µM | Hs-578T 14.5 µM | A549 12.6 µM | M14 12.3 µM | K562 11.7 µM | OVCAR-3 12.5 µM | TK-10 10.3 µM | SK-MEL-5 12.4 µM | SW-620 13.8 µM | HCT-116 7.28 µM | A498 12.9 µM | NCI-H23 13.3 µM | OVCAR-4 11.9 µM | HL-60 5.92 µM | MOLT-4 1.92 µM | NCI-H522 6.07 µM | EKVX 12.5 µM | SNB-19 14.8 µM | SN12C 20.8 µM | U-251 11.7 µM | CAKI-1 2.28 µM | SK-OV-3 15.1 µM | SF-539 17.7 µM | SK-MEL-28 39.7 µM | NCI-H460 4.92 µM | KM12 18.7 µM | DU-145 9.84 µM | MCF7 19.2 µM | Malme-3M 10.3 µM | MDA-N 36.4 µM | SF-268 12.7 µM | NCI-H226 13.9 µM | 786-0 8.97 µM | HT-29 14.2 µM | SK-MEL-2 13 µM | OVCAR-5 22.9 µM | CCRF-CEM 2.74 µM | COLO 205 21.6 µM | HOP-62 10.9 µM | UACC-257 19.2 µM | MDA-MB-435 29.7 µM | SF-295 16.2 µM | PC-3 8.91 µM | ACHN 5.68 µM | HCC 2998 13.8 µM | RXF 393 14.7 µM | BT-549 14 µM
active: SR 1.08 µM

O=C(O)c1cc(Sc2ccc([N+](=O)[O-])c(C(=O)O)c2)ccc1[N+](=O)[O-]
> 100 µM: HCT-15
inactive: HOP-92 > 100 µM | UO-31 > 100 µM | T47D > 100 µM | UACC-62 > 100 µM | LOX IMVI > 100 µM | RPMI-8226 > 100 µM | MDA-MB-231 > 100 µM | OVCAR-8 > 100 µM | Hs-578T > 100 µM | A549 > 100 µM | M14 > 100 µM | K562 > 100 µM | OVCAR-3 > 100 µM | TK-10 > 100 µM | SK-MEL-5 > 100 µM | SW-620 > 100 µM | HCT-116 > 100 µM | A498 > 100 µM | OVCAR-4 > 100 µM | HL-60 > 100 µM | MOLT-4 > 100 µM | EKVX > 100 µM | SNB-19 > 100 µM | SN12C > 100 µM | U-251 > 100 µM | SK-OV-3 > 100 µM | SF-539 > 100 µM | SK-MEL-28 > 100 µM | NCI-H460 > 100 µM | KM12 > 100 µM | DU-145 > 100 µM | MCF7 > 100 µM | NCI/ADR-RES > 100 µM | MDA-N > 100 µM | SF-268 > 100 µM | NCI-H226 > 100 µM | 786-0 > 100 µM | HT-29 > 100 µM | SK-MEL-2 > 100 µM | OVCAR-5 > 100 µM | CCRF-CEM > 100 µM | COLO 205 > 100 µM | HOP-62 > 100 µM | UACC-257 > 100 µM | MDA-MB-435 > 100 µM | IGROV-1 > 100 µM | SF-295 > 100 µM | PC-3 > 100 µM | ACHN > 100 µM | RXF 393 > 100 µM | BT-549 > 100 µM
active: Malme-3M 0.413 µM

O=C(N/N=C(COc1cccc(Cl)c1)\N=C\c1ccncc1)c1ccncc1
inactive: HOP-92 35.6 µM | T47D > 100 µM | UACC-62 > 100 µM | LOX IMVI > 100 µM | RPMI-8226 > 100 µM | MDA-MB-231 > 100 µM | OVCAR-8 > 100 µM | Hs-578T > 100 µM | A549 > 100 µM | M14 > 100 µM | K562 > 100 µM | OVCAR-3 > 100 µM | TK-10 > 100 µM | SW-620 > 100 µM | HCT-116 > 100 µM | A498 68.9 µM | NCI-H23 > 100 µM | OVCAR-4 > 100 µM | HL-60 > 100 µM | MOLT-4 > 100 µM | NCI-H522 > 100 µM | EKVX > 100 µM | SNB-19 > 100 µM | SN12C > 100 µM | U-251 > 100 µM | CAKI-1 > 100 µM | SK-OV-3 > 100 µM | SF-539 > 100 µM | SK-MEL-28 > 100 µM | NCI-H460 > 100 µM | KM12 > 100 µM | DU-145 > 100 µM | MCF7 > 100 µM | Malme-3M > 100 µM | NCI/ADR-RES > 100 µM | MDA-N > 100 µM | SF-268 > 100 µM | NCI-H226 > 100 µM | 786-0 > 100 µM | HT-29 > 100 µM | SK-MEL-2 > 100 µM | OVCAR-5 > 100 µM | CCRF-CEM > 100 µM | COLO 205 > 100 µM | HOP-62 > 100 µM | UACC-257 > 100 µM | MDA-MB-435 75.3 µM | IGROV-1 > 100 µM | SF-295 > 100 µM | PC-3 > 100 µM | ACHN > 100 µM | HCC 2998 > 100 µM | RXF 393 36.4 µM | BT-549 > 100 µM
> 100 µM: HCT-15
